Test results as given in patent publication US4758574A, “2-phenylimidazio (4,5-c) pyridines” (Eli Lilly and Company, priority 1986, dated 1988).
Structures can show the parent of a compound that is named as a salt.

How the values were obtained:
[1] = test system: Cat Papillary Muscles; assay: Positive Inotropic Activity in Isolated Cat Papillary Muscles; assay type: cell-based; conditions: Felis catus, control = 100 percent, read-out: Contractility of Papillary Muscle (peak response); for activity at 100 µM: Drug Concentration 10^-4 M; for activity at 10 µM: Drug Concentration 10^-5 M
Description: Positive Inotropic Activity in Isolated Cat Papillary Muscles […] A platinum hook secured one end of the muscle to an electrode mounted in the bottom of the bath, and a silk thread attached the tendon to a Statham isometric transducer. The baths contained Krebs-Henseleit solution (36° C., bubbled with 95 percent oxygen--5 percent carbon dioxide) of the following millimolar composition: NaCl, 118; KCl, 4.5; CaCl2, 2.5; KH2 PO4, 1.1; MgSO4, 1.2; NaHCO3, 25; and glucose, 11. A base-line tension of 1.5 g. was applied to each muscle. Square-wave pulses (5.0 msec. in duration, three times threshold voltage) delivered through the hook electrode and a second electrode positioned near the top of the muscle evoked 12 contractions/minute, which were recorded on a Grass polygraph. After the muscles had equilibrated for 60 minutes, the recorder gain was adjusted so that the pen deflected 10 mm. The drug was introduced in a solution of normal saline in an amount to bring the final concentration of the drug to 10^-5 or 10^-4 molar. Increases in contractility were tabulated as millimeters of pen deflection in excess of the baseline value. In each experiment the maximum contractility was measured. Test results are summarized in Table I and are expressed as percent of control (control=100 percent). Values are the average of results from 2 to 8 muscles.

[2] = test system: Ventricular Contractility in the Anesthetized Dog; assay: Ventricular Contractility in the Anesthetized Dog; assay type: in vivo, Mongrel dogs; conditions: Canis lupus familiaris, iv, i.v. bolus, read-out: ED50 (dose required to produce a peak increase in contractility of 50%)
Description: Experiments in Anesthetized Dogs Mongrel dogs of either sex ranging in weight from 7 to 14 kg. wer used. Anesthesia was induced with sodium pentobarbital (30 mg./kg., i.v.) and maintained with supplemental doses as required. A positive-pressure pump was used to ventilate the dogs through an endotracheal tube (18 strokes/minute, 20 ml./kg. stroke^-1), and a heating pad kept the body temperature at 37°-38° C. Femoral arterial blood pressure was measured through a polyethylene catheter filled with heparin solution (16 units/ml.) and connected to a Statham pressure transducer. A strain-gauge arch sutured to the right ventricle of the heart measured cardiac contractility. Tension on the gauge was adjusted to 50 g. and the gain of the recorder (Beckman dynograph) was set so that 50 g. caused a 10-mm. pen deflection; cardiac contractile tension was measured as millimeters of pen deflection or grams of tension. The drug was administered following a 30-45 minute equilibrium period as an i.v. bolus (2-5 ml.) in a normal saline vehicle. […] The maximum effects on contractility at various dose levels were determined and plotted and the dose required to produce a 50% increase in contractility (ED50) was determined by interpolation.

Fc1cccc(-c2nc3cnccc3[nH]2)c1 [Example 1, 2-(3-Fluorophenyl)imidazo[4,5-c]pyridine hydrochloride]
activity at 100 µM [1]: 157% | activity at 10 µM [1]: 112%

Cc1cccc(-c2nc3cnccc3[nH]2)c1 [Example 2, 2-(3-Methylphenyl)imidazo[4,5-c]pyridine]
ED50 [2]: 1 mg/kg | activity at 100 µM [1]: 181% | activity at 10 µM [1]: 116%

Clc1cc(Cl)cc(-c2nc3cnccc3[nH]2)c1 [Example 3, 2-(3,5-Dichlorophenyl)imidazo[4,5-c]pyridine hydrochloride]
activity at 100 µM [1]: 146% | activity at 10 µM [1]: 117%

CS(=O)(=O)c1ccc(-c2nc3cnccc3[nH]2)cc1 [Example 4, 2-(4-Methylsulfonylphenyl)imidazo[4,5-c]pyridine hydrochloride]
ED50 [2]: 7.5 mg/kg | activity at 100 µM [1]: 139% | activity at 10 µM [1]: 117%

Fc1ccc(-c2nc3cnccc3[nH]2)cc1 [Example 5, 2-(4-Fluorophenyl)imidazo[4,5-c]pyridine hydrochloride]
activity at 100 µM [1]: 163% | activity at 10 µM [1]: 105%

Fc1ccccc1-c1nc2cnccc2[nH]1 [Example 6, 2-(2-Fluorophenyl)imidazo[4,5-c]pyridine hydrochloride]
activity at 100 µM [1]: 152% | activity at 10 µM [1]: 108%

COc1cc(-c2nc3cnccc3[nH]2)cc(OC)c1OC [Example 10, 2-(3,4,5-trimethoxyphenyl)imidazo[4,5-c]pyridine hydrochloride]
activity at 100 µM [1]: 150% | activity at 10 µM [1]: 109%

COc1cccc(-c2nc3cnccc3[nH]2)c1OC [Example 11, 2-(2,3-dimethoxyphenyl)imidazo[4,5-c]pyridine hydrochloride]
activity at 100 µM [1]: 90% | activity at 10 µM [1]: 102%

O=[N+]([O-])c1cccc(-c2nc3cnccc3[nH]2)c1 [Example 12, 2-(3-nitrophenyl)imidazo[4,5-c]pyridine hydrochloride]
activity at 100 µM [1]: 105% | activity at 10 µM [1]: 102%

N#Cc1ccc(-c2nc3cnccc3[nH]2)cc1 [Example 14, 2-(4-cyanophenyl)imidazo[4,5-c]pyridine hydrochloride]
activity at 100 µM [1]: 164% | activity at 10 µM [1]: 112%

COc1cccc(-c2nc3cnccc3[nH]2)c1 [Example 16, 2-(3-methoxyphenyl)imidazo[4,5-c]pyridine hydrochloride]
activity at 100 µM [1]: 213% | activity at 10 µM [1]: 114%

CN(C)c1ccc(-c2nc3cnccc3[nH]2)cc1 [Example 17, 2-(4-dimethylaminophenyl)imidazo[4,5-c]pyridine hydrochloride]
activity at 100 µM [1]: 175% | activity at 10 µM [1]: 95%

COc1ccccc1-c1nc2cnccc2[nH]1 [Example 18, 2-(2-methoxyphenyl)imidazo[4,5-c]pyridine hydrochloride]
activity at 100 µM [1]: 163% | activity at 10 µM [1]: 115%

CCCCOc1ccc(-c2nc3cnccc3[nH]2)cc1 [Example 19, 2-(4-n-butoxyphenyl)imidazo[4,5-c]pyridine hydrochloride]
activity at 100 µM [1]: 288% | activity at 10 µM [1]: 114%

COc1cc(Cl)ccc1-c1nc2cnccc2[nH]1 [Example 20, 2-(4-chloro-2-methoxyphenyl)imidazo[4,5-c]pyridine hydrochloride]
activity at 100 µM [1]: 146% | activity at 10 µM [1]: 147%

COc1c(C)cc(-c2nc3cnccc3[nH]2)cc1C [Example 21, 2-(3,5-dimethyl-4-methoxyphenyl)imidazo[4,5-c]pyridine hydrochloride]
activity at 100 µM [1]: 215% | activity at 10 µM [1]: 127%

COc1ccc(-c2nc3cnccc3[nH]2)c(OC)c1OC [Example 22, 2-(2,3,4-trimethoxyphenyl)imidazo[4,5-c]pyridine hydrochloride]
activity at 100 µM [1]: 221% | activity at 10 µM [1]: 117%

Cc1ccc(-c2nc3cnccc3[nH]2)cc1 [Example 25, 2-(4-methylphenyl)imidazo[4,5-c]pyridine hydrochloride]
activity at 100 µM [1]: 130% | activity at 10 µM [1]: 95%

CCOc1cc(OC)ccc1-c1nc2cnccc2[nH]1 [Example 28, 2-(2-ethoxy-4-methoxyphenyl)imidazo[4,5-c]pyridine]
activity at 100 µM [1]: 130% | activity at 10 µM [1]: 108%

CCCCOc1cc(OC)ccc1-c1nc2cnccc2[nH]1 [Example 30, 2-(2-n-butoxy-4-methoxyphenyl)imidazo[4,5-c]pyridine]
activity at 100 µM [1]: 140% | activity at 10 µM [1]: 100%

COc1ccc(OC)c(-c2nc3cnccc3[nH]2)c1 [Example 31, 2-(2,5-dimethoxyphenyl)imidazo[4,5-c]pyridine hydrochloride]
activity at 100 µM [1]: 194% | activity at 10 µM [1]: 110%

COc1cc(OC)cc(-c2nc3cnccc3[nH]2)c1 [Example 32, 2-(3,5-dimethoxyphenyl)imidazo[4,5-c]pyridine]
activity at 100 µM [1]: 179% | activity at 10 µM [1]: 115%

COc1cccc(OC)c1-c1nc2cnccc2[nH]1 [Example 33, 2-(2,6-dimethoxyphenyl)imidazo[4,5-c]pyridine hydrochloride]
activity at 100 µM [1]: 184% | activity at 10 µM [1]: 88%

COc1cc(OC)c(-c2nc3cnccc3[nH]2)c(OC)c1 [Example 34, 2-(2,4,6-trimethoxyphenyl)imidazo[4,5-c]pyridine]
activity at 100 µM [1]: 137% | activity at 10 µM [1]: 103%

CCCCCOc1cc(OC)ccc1-c1nc2cnccc2[nH]1 [Example 35, 2-(2-n-pentoxy-4-methoxyphenyl)imidazo[4,5-c]pyridine hydrochloride]
activity at 100 µM [1]: 81% | activity at 10 µM [1]: 105%

COCCCOc1cc(OC)ccc1-c1nc2cnccc2[nH]1 [Example 36, 2-[2-(γ-methoxypropoxy)-4-methoxyphenyl]imidazo[4,5-c]pyridine]
activity at 100 µM [1]: 147% | activity at 10 µM [1]: 100%

COCCOc1cc(OC)ccc1-c1nc2cnccc2[nH]1 [Example 37, 2-[2-(β-methoxyethoxy)-4-methoxyphenyl]imidazo[4,5-c]pyridine]
activity at 100 µM [1]: 116% | activity at 10 µM [1]: 109%

COc1ccc(-c2nc3cnccc3[nH]2)c(OCCSc2ccccc2)c1 [Example 38, 2-[2-(β-phenylmercaptoethoxy)-4-methoxyphenyl]imidazo[4,5-c]pyridine]
activity at 100 µM [1]: 109% | activity at 10 µM [1]: 103%

COc1cc(OC)c(-c2nc3cnccc3[nH]2)cc1OC [Example 40, 2-(2,4,5-trimethoxyphenyl)imidazo[4,5-c]pyridine hydrochloride]
activity at 100 µM [1]: 129% | activity at 10 µM [1]: 108%

CCSc1ccc(-c2nc3cnccc3[nH]2)c(OC)c1 [Example 41, 2-(2-methoxy-4-ethylmercaptophenyl)imidazo[4,5-c]pyridine hydrochloride]
activity at 100 µM [1]: 196% | activity at 10 µM [1]: 136%

CCOc1cc(SC)ccc1-c1nc2cnccc2[nH]1 [Example 42, 2-(2-ethoxy-4-methylmercaptophenyl)imidazo[4,5-c]pyridine]
activity at 100 µM [1]: 149% | activity at 10 µM [1]: 122%

CCCOc1cc(SC)ccc1-c1nc2cnccc2[nH]1 [Example 43, 2-(2-n-propoxy-4-methylmercaptophenyl)imidazo[4,5-c]pyridine]
ED50 [2]: 2.2 mg/kg

COc1ccc(-c2nc3cnccc3[nH]2)c(OCCCSC)c1 [Example 44, 2-[2-(γ-methylmercaptopropoxy)-4-methoxyphenyl]imidazo[4,5-c]pyridine]
activity at 100 µM [1]: 129% | activity at 10 µM [1]: 118%

Cc1ccc(-c2nc3cnccc3[nH]2)cc1C [Example 46, 2-(3,4-dimethylphenyl)imidazo[4,5-c]pyridine hydrochloride]
activity at 100 µM [1]: 225% | activity at 10 µM [1]: 133%

Clc1cccc(-c2nc3cnccc3[nH]2)c1 [Example 48, 2-(3-chlorophenyl)imidazo[4,5-c]pyridine]
activity at 100 µM [1]: 176% | activity at 10 µM [1]: 107%

Clc1ccc(-c2nc3cnccc3[nH]2)cc1 [Example 49, 2-(4-chlorophenyl)imidazo[4,5-c]pyridine]
activity at 100 µM [1]: 175% | activity at 10 µM [1]: 107%

COc1ccc(-c2nc3cnccc3[nH]2)c(OCC[S+]([O-])c2ccccc2)c1 (stereo not drawn) [Example 53, 2-[2-(β-phenylsulfinylethoxy)-4-methoxyphenyl]imidazo[4,5-c]pyridine]
activity at 100 µM [1]: 96% | activity at 10 µM [1]: 107%

COc1cc(Br)ccc1-c1nc2cnccc2[nH]1 [Example 57, 2-(2-methoxy-4-bromophenyl)imidazo[4,5-c]pyridine hydrochloride]
activity at 100 µM [1]: 175% | activity at 10 µM [1]: 134%
